Assay results: the NIST ThermoML archive (doi:10.1021/acs.jced.5b00181)

Test: xn = mol fraction of the nth substance listed
Settings: 101 kPa, Liquid; for viscosity: Falling or rolling sphere viscometry; for speed of sound: Frequency=3 MHz, Sing-around technique in a fixed-path interferometer; for mass density: Vibrating tube method

CCCC[n+]1ccn(C)c1.O=S(=O)([N-]S(=O)(=O)C(F)(F)F)C(F)(F)F + CCCO
Settings | mass density [kg/m3] | speed of sound [m/s] | viscosity [mPa·s]
278.15 K, x1 = 0.0508 | 926.62 | 1252.2 | 4.722
278.15 K, x1 = 0.0949 | 1002.03 | 1241 | 6.623
278.15 K, x1 = 0.1989 | 1130.78 | 1235.7 | 11.44
278.15 K, x1 = 0.2976 | 1214 | 1239.7 | 16.84
278.15 K, x1 = 0.3912 | 1272.23 | 1245.7 | 22.98
278.15 K, x1 = 0.4852 | 1317.37 | 1250.9 | 31.14
278.15 K, x1 = 0.5929 | 1358.04 | 1256.8 | 42.15
278.15 K, x1 = 0.692 | 1388.04 | 1261.7 | 56.15
278.15 K, x1 = 0.7968 | 1414.14 | 1266.2 | 76.57
278.15 K, x1 = 0.903 | 1436.28 | 1270.3 | 102.44
298.15 K, x1 = 0.0508 | 909.64 | 1188.9 | 2.701
298.15 K, x1 = 0.0949 | 984.4 | 1181.4 | 3.573
298.15 K, x1 = 0.1989 | 1112.17 | 1180.9 | 5.908
298.15 K, x1 = 0.2976 | 1194.92 | 1187.6 | 8.374
298.15 K, x1 = 0.3912 | 1252.93 | 1195.6 | 10.88
298.15 K, x1 = 0.4852 | 1297.96 | 1201.7 | 14.14
298.15 K, x1 = 0.5929 | 1338.58 | 1208.6 | 18.55
298.15 K, x1 = 0.692 | 1368.59 | 1214.5 | 23.83
298.15 K, x1 = 0.7968 | 1394.7 | 1219.5 | 30.51
298.15 K, x1 = 0.903 | 1416.85 | 1224 | 39.95
318.15 K, x1 = 0.0508 | 892.29 | 1127.5 | 1.693
318.15 K, x1 = 0.0949 | 966.47 | 1123.7 | 2.187
318.15 K, x1 = 0.1989 | 1093.43 | 1128.2 | 3.491
318.15 K, x1 = 0.2976 | 1175.83 | 1137.6 | 4.677
318.15 K, x1 = 0.3912 | 1233.7 | 1147.2 | 6.173
318.15 K, x1 = 0.4852 | 1278.71 | 1154.6 | 7.805
318.15 K, x1 = 0.5929 | 1319.36 | 1162.5 | 10.1
318.15 K, x1 = 0.692 | 1349.4 | 1169.2 | 12.76
318.15 K, x1 = 0.7968 | 1375.56 | 1174.9 | 15.78
318.15 K, x1 = 0.903 | 1397.74 | 1180.1 | 19.35
338.15 K, x1 = 0.0508 | 874.3 | – | 1.136
338.15 K, x1 = 0.0519 | – | 1066.7 | –
338.15 K, x1 = 0.0949 | 948.03 | – | 1.457
338.15 K, x1 = 0.1037 | – | 1066.7 | –
338.15 K, x1 = 0.1989 | 1074.44 | – | 2.303
338.15 K, x1 = 0.2013 | – | 1076.8 | –
338.15 K, x1 = 0.2976 | 1156.66 | – | 3.004
338.15 K, x1 = 0.3088 | – | 1089 | –
338.15 K, x1 = 0.3912 | 1214.5 | – | 3.93
338.15 K, x1 = 0.3963 | – | 1100 | –
338.15 K, x1 = 0.4852 | 1259.59 | – | 4.908
338.15 K, x1 = 0.4918 | – | 1109.1 | –
338.15 K, x1 = 0.5723 | – | 1118.3 | –
338.15 K, x1 = 0.5929 | 1300.32 | – | 6.258
338.15 K, x1 = 0.692 | 1330.43 | – | 7.446
338.15 K, x1 = 0.7026 | – | 1125.4 | –
338.15 K, x1 = 0.7968 | 1356.65 | – | 9.633
338.15 K, x1 = 0.8055 | – | 1132 | –
338.15 K, x1 = 0.9025 | – | 1137.8 | –
338.15 K, x1 = 0.903 | 1378.89 | – | 11.48

CCn1cc[n+](C)c1.O=S(=O)([N-]S(=O)(=O)C(F)(F)F)C(F)(F)F + CCCO
Settings | mass density [kg/m3] | speed of sound [m/s] | viscosity [mPa·s]
278.15 K, x1 = 0.4918 | 1372.4 | 1253.1 | 20.94
278.15 K, x1 = 0.5723 | 1410.18 | 1259.6 | 25.39
278.15 K, x1 = 0.7026 | 1459.58 | 1268.7 | 34.81
278.15 K, x1 = 0.8055 | 1491.11 | 1274.9 | 44.9
278.15 K, x1 = 0.9025 | 1516.35 | 1280 | 56.99
298.15 K, x1 = 0.0519 | 914.24 | 1184.8 | 2.639
298.15 K, x1 = 0.1037 | 1005.11 | 1175.1 | 3.53
298.15 K, x1 = 0.2013 | 1134.16 | 1175.8 | 5.134
298.15 K, x1 = 0.3088 | 1235.5 | 1186.2 | 6.891
298.15 K, x1 = 0.3963 | 1297.78 | 1195.6 | 8.358
298.15 K, x1 = 0.4918 | 1352.18 | 1205 | 10.6
298.15 K, x1 = 0.5723 | 1389.87 | 1212.2 | 12.63
298.15 K, x1 = 0.7026 | 1439.2 | 1222.2 | 16.89
298.15 K, x1 = 0.8055 | 1470.7 | 1228.9 | 21.07
298.15 K, x1 = 0.9025 | 1495.92 | 1234.3 | 25.97
318.15 K, x1 = 0.0519 | 896.79 | 1124.1 | 1.656
318.15 K, x1 = 0.1037 | 986.91 | 1119.3 | 2.083
318.15 K, x1 = 0.2013 | 1115.01 | 1124.8 | 2.938
318.15 K, x1 = 0.3088 | 1215.8 | 1137.8 | 3.978
318.15 K, x1 = 0.3963 | 1277.87 | 1148.3 | 4.994
318.15 K, x1 = 0.4918 | 1332.15 | 1158.9 | 6.245
318.15 K, x1 = 0.5723 | 1369.81 | 1166.8 | 7.454
318.15 K, x1 = 0.7026 | 1419.12 | 1177.7 | 9.792
318.15 K, x1 = 0.8055 | 1450.62 | 1185 | 11.97
318.15 K, x1 = 0.9025 | 1475.84 | 1191 | 14.58
338.15 K, x1 = 0.0519 | 878.72 | 1064.4 | 1.117
338.15 K, x1 = 0.1037 | 968.2 | 1064.1 | 1.389
338.15 K, x1 = 0.2013 | 1095.6 | 1074.6 | 1.956
338.15 K, x1 = 0.3088 | 1196.06 | 1090.4 | 2.656
338.15 K, x1 = 0.3963 | 1258.02 | 1102.6 | 3.333
338.15 K, x1 = 0.4918 | 1312.29 | 1114.4 | 4.156
338.15 K, x1 = 0.5723 | 1349.96 | 1123.2 | 4.931
338.15 K, x1 = 0.7026 | 1399.28 | 1135.3 | 6.395
338.15 K, x1 = 0.8055 | 1430.83 | 1143.2 | 7.634
338.15 K, x1 = 0.9025 | 1456.06 | 1149.7 | 9.201

CCCCCC[n+]1ccn(C)c1.O=S(=O)([N-]S(=O)(=O)C(F)(F)F)C(F)(F)F + CCCO
Settings | mass density [kg/m3] | speed of sound [m/s] | viscosity [mPa·s]
278.15 K, x1 = 0.048 | 920.02 | 1255.6 | 4.973
278.15 K, x1 = 0.0991 | 1003.18 | 1246.2 | 7.263
278.15 K, x1 = 0.1928 | 1109.95 | 1243.7 | 13.14
278.15 K, x1 = 0.2895 | 1184.1 | 1246.9 | 20.71
278.15 K, x1 = 0.3911 | 1239.44 | 1252 | 30.93
278.15 K, x1 = 0.4877 | 1278.76 | 1256.3 | 44.03
278.15 K, x1 = 0.6028 | 1314.62 | 1261.3 | 63.47
278.15 K, x1 = 0.6999 | 1338.53 | 1265.1 | 87.45
278.15 K, x1 = 0.8016 | 1359.18 | 1268.5 | 117.11
278.15 K, x1 = 0.8999 | 1375.88 | 1271.5 | 155.87
298.15 K, x1 = 0.048 | 903.08 | 1191.5 | 2.872
298.15 K, x1 = 0.0991 | 985.65 | 1186 | 3.917
298.15 K, x1 = 0.1928 | 1091.69 | 1187.7 | 6.538
298.15 K, x1 = 0.2895 | 1165.51 | 1193.5 | 9.707
298.15 K, x1 = 0.3911 | 1220.7 | 1200.4 | 13.78
298.15 K, x1 = 0.4877 | 1259.96 | 1205.8 | 18.59
298.15 K, x1 = 0.6028 | 1295.83 | 1211.8 | 25.71
298.15 K, x1 = 0.6999 | 1319.79 | 1216.2 | 33.17
298.15 K, x1 = 0.8016 | 1340.46 | 1220.1 | 42.83
298.15 K, x1 = 0.8999 | 1357.18 | 1223.3 | 54.58
318.15 K, x1 = 0.048 | 885.86 | 1129.7 | 1.799
318.15 K, x1 = 0.0991 | 967.85 | 1128.2 | 2.374
318.15 K, x1 = 0.1928 | 1073.33 | 1134 | 3.734
318.15 K, x1 = 0.2895 | 1146.9 | 1142.4 | 5.367
318.15 K, x1 = 0.3911 | 1202.04 | 1151 | 7.383
318.15 K, x1 = 0.4877 | 1241.33 | 1157.7 | 9.855
318.15 K, x1 = 0.6028 | 1277.27 | 1164.8 | 13.26
318.15 K, x1 = 0.6999 | 1301.3 | 1169.8 | 16.47
318.15 K, x1 = 0.8016 | 1322.04 | 1174.3 | 20.58
318.15 K, x1 = 0.8999 | 1338.82 | 1178.1 | 25.19
338.15 K, x1 = 0.048 | 868.04 | 1069.2 | 1.203
338.15 K, x1 = 0.0991 | 949.6 | 1071.6 | 1.565
338.15 K, x1 = 0.1928 | 1054.71 | 1081.8 | 2.399
338.15 K, x1 = 0.2895 | 1128.21 | 1092.8 | 3.401
338.15 K, x1 = 0.3911 | 1183.4 | 1103.3 | 4.568
338.15 K, x1 = 0.4877 | 1222.81 | 1111.4 | 5.928
338.15 K, x1 = 0.6028 | 1258.9 | 1119.7 | 7.803
338.15 K, x1 = 0.6999 | 1283.03 | 1125.6 | 9.596
338.15 K, x1 = 0.8016 | 1303.87 | 1130.8 | 11.71
338.15 K, x1 = 0.8999 | 1320.72 | 1135.3 | 13.92
